The text below walks through data of US20220211718A1, “BCL-2 INHIBITORS FOR USE IN THE TREATMENT OF A BCL-2 MEDIATED CANCER CARRYING THE GLY101VAL MUTATION” (LES LABORATOIRES SERVIER, priority 2019, published 2022).

In one assay the test system is RS4;11 Bcl-2 G101V cells. The experiment in a line: In vitro cytotoxicity, CellTiter-Glo cell viability 72 h. The format is cell-based. To be noted: Homo sapiens, read-out: RS4;11 Bcl-2 G101V C50. As for the experimental part:
(§1) Cell lines were grown at 37° C. in a humidified atmosphere with 5% CO2 in media recommended by the suppliers. RS4;11 (ATCC® CRL1873™) were purchased from American Type Culture Collection (ATCC) and KMS-12-PE (ACC 606) from the Leibniz-Institute DSMZ (Braunschweig, Germany). Lentiviral particles containing Bcl-2 wild-type (also named ‘Bcl-2 VT’) and Bcl-2 mutated on G101V (also named ‘Bcl-2 G101V’) were cloned into pcLV-CMV-DEST-IRES-TagRFP. Lentiviral particles (1×10^6) were mixed with Polybrene at 8 μg/ml and transduced by spinoculation for 1 h at 32° C. and incubated overnight. After 8 days for KMS-12-PE and 21 days for RS4;11, TagRFP positive-cells were sorted by FACS. BCL2 expression was monitored by immunoblotting using anti-Flag and anti-BCL2 antibodies. Cells were seeded into 96-well plates and treated with 1:3.16 serial dilution of compounds (9 different concentrations). […] Results were normalized to the viability of cells without compounds (control wells). The C50 values were calculated using nonlinear regression algorithms in XCell software.
(In general: In ATP-based viability assays light output follows the ATP content of the culture.)

The subject of a further assay is RS4;11 Bcl-2 WT cells. The description is as above. The format is cell-based. To be noted: Homo sapiens, read-out: RS4;11 Bcl-2 WT C50. As to the method:
as §1

The test system of the next assay is KMS-12-PE Bcl-2 WT cells. Described as above. The format is cell-based. To be noted: Homo sapiens, read-out: KMS-12-PE Bcl-2 WT C50. As to the method: as §1
Assay [1] deals with KMS-12-PE Bcl-2 G101V cells. The description is as above. The format is cell-based. To be noted: Homo sapiens, read-out: KMS-12-PE Bcl-2 G101V C50. As to the method: as §1
Assay [2] relates to KMS-12-PE Bcl-2 D103Y cells. Put plainly: In vitro cytotoxicity, CellTiter-Glo cell viability 72 h, Example 5. The format is cell-based. To be noted: Homo sapiens, read-out: KMS-12-PE Bcl-2 D103Y C50. As for the experimental part: Cell lines were grown at 37° C. in a humidified atmosphere with 5% CO2 in media recommended by the suppliers. KMS-12-PE (ACC 606) from the Leibniz-Institute DSMZ (Braunschweig, Germany). Lentiviral particles containing Bcl-2 mutated on D103Y were cloned into pcLV-CMV-DEST-IRES-TagRFP. Lentiviral particles (1×10^6) were mixed with Polybrene at 8 μg/ml and transduced by spinoculation for 1 h at 32° C. and incubated overnight. TagRFP positive-KMS-12-PE cells were sorted by FACS after 8 days. Bcl-2 expression was monitored by immunoblotting using anti-Flag and anti-Bcl-2 antibodies. Cells were seeded into 96-well plates and treated at 9 points with 1:3.16 serial dilution of compounds. […] Results were normalized to the viability of cells without compounds (control wells). The C50 values were calculated using nonlinear Regression algorithms in XCell software.

In the next assay the target is Bcl-2 Asp103Tyr mutant (Homo sapiens, UniProt P10415, D103Y). Put plainly: Fluorescence quenching assay (PUMA quench reagent displacement), Example 4. The format is binding. To be noted: 50 nM peptide, about 2 hours at 18° C., ABT-199 inactive @1 μM. From the text: […] […] […] […] […] […] […] […] […] […] […] […] […] […] […] […] […] […] […] […] […] […] […] […] […] […] […]
Sequence of Bcl-2 Asp103Tyr mutant (P10415 with tags, fused parts or gaps D103Y): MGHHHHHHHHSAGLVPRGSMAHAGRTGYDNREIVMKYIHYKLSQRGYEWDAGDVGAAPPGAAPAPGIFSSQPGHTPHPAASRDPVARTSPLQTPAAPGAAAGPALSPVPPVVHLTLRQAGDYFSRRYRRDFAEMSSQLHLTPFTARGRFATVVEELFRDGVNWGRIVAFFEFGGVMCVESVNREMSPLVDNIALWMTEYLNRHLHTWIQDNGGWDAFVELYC

Turning to `Cc1c(N(C(=O)c2cc(-c3cc(Cl)ccc3C(=O)N3Cc4ccccc4C[C@H]3CN3CCOCC3)n(C)c2C)c2ccc(O)cc2)cc(C#N)n1C` [Compound B, 5-(5-chloro-2-{[(3S)-3-(morpholin-4-ylmethyl)-3,4-dihydroisoquinolin-2(1H)-yl]carbonyl}phenyl)-N-(5-cyano-1,2-dimethyl-1H-pyrrol-3-yl)-N-(4-hydroxyphenyl)-1,2-dimethyl-1H-pyrrole-3-carboxamide], the IC50 with RS4;11 Bcl-2 G101V cells came out at 60.4 nM; in the assay on RS4;11 Bcl-2 WT cells, 9.03 nM; in the assay on KMS-12-PE Bcl-2 WT cells it was 21 nM; in assay [1], 179 nM; in assay [2], 83.7 nM.

With `CC1(C)CCC(CN2CCN(c3ccc(C(=O)NS(=O)(=O)c4ccc(NCC5CCOCC5)c([N+](=O)[O-])c4)c(Oc4cnc5[nH]ccc5c4)c3)CC2)=C(c2ccc(Cl)cc2)C1` [ABT-199, Venetoclax, reference compound], the IC50 was determined as 130 nM in the assay on RS4;11 Bcl-2 G101V cells; 10.7 nM in the assay with RS4;11 Bcl-2 WT cells; 22.5 nM in the assay with KMS-12-PE Bcl-2 WT cells; 931 nM in assay [1]; 1830 nM in assay [2]. Further, the “Bel-2 Asp103Tyr mutant K1 mean” value at Bcl-2 Asp103Tyr mutant was “inactive”.

With `O=C(c1cc(-c2cc3c(cc2C(=O)N2Cc4ccccc4C[C@H]2CN2CCOCC2)OCO3)n2c1CCCC2)N(c1ccccc1)c1ccc(O)cc1` [Compound A, N-(4-hydroxyphenyl)-3-{6-[((3S)-3-(4-morpholinylmethyl)-3,4-dihydro-2(1H)-isoquinolinyl)carbonyl]-1,3-benzodioxol-5-yl}-N-phenyl-5,6,7,8-tetrahydro-1-indolizine carboxamide], the IC50 stood at 495 nM in the assay with RS4;11 Bcl-2 G101V cells, 82.3 nM in the assay with RS4;11 Bcl-2 WT cells, 57.3 nM in the assay on KMS-12-PE Bcl-2 WT cells and 961 nM in assay [1].
